As a reminder, the inhibition is the drop in the measured response relative to a control, in per cent. What is called Ki is the dissociation constant of the complex between target and ligand, obtained from inhibition or displacement. Low readings indicate higher affinity, high ones lower affinity.

In test [1] the target is Beta-1 adrenergic receptor (Homo sapiens) (UniProt P08588). As to conditions: Compound concentration 10.0 uM.
Test [2] concerns the target T1, Mitogen-activated protein kinase kinase kinase 3 (Homo sapiens) (UniProt Q99759).
T1 sequence (whole entry): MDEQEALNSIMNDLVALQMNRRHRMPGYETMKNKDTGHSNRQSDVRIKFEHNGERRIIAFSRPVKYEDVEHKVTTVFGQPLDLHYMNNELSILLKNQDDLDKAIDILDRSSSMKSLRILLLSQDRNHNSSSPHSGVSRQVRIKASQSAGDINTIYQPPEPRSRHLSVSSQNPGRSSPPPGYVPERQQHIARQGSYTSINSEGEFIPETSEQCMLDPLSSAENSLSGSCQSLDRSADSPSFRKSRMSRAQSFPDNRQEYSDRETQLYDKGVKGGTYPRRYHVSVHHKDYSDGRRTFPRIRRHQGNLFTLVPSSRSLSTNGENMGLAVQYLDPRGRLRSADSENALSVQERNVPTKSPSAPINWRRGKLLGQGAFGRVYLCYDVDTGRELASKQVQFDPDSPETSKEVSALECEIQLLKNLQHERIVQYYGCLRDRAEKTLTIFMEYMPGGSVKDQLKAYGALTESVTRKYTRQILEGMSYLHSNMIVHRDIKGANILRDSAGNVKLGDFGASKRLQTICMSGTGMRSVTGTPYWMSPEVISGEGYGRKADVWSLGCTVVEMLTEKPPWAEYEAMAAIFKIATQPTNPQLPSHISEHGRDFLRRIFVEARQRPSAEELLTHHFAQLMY
As to the kind of experiment: MAP3K3 (MEKK3) Kinase screen. As to conditions: Compound concentration 1.0 uM.

For test [3], the target named is Calcium/calmodulin-dependent protein kinase type II subunit delta (Homo sapiens) (UniProt Q13557). As to the kind of experiment: CAMK2D (CaMKII delta) Kinase screen. Conditions: Compound concentration 1.0 uM.
Calcium/calmodulin-dependent protein kinase type II subunit delta (Homo sapiens), sequence (Q13557 whole entry): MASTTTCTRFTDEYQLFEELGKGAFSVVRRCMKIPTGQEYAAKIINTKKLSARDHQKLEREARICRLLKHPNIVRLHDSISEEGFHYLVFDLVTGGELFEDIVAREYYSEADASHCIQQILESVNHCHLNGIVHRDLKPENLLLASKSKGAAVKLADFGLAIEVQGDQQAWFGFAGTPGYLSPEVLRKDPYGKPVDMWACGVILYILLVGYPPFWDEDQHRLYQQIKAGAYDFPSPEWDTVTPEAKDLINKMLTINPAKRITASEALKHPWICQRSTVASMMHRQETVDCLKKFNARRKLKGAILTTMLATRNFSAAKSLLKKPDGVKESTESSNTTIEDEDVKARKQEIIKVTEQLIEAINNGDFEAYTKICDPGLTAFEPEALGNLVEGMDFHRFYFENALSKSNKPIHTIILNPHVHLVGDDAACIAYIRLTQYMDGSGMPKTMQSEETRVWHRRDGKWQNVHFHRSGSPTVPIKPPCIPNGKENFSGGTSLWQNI
In test [4] the target is T2, Alpha-2B adrenergic receptor (Homo sapiens) (UniProt P18089).
T2 sequence (whole entry): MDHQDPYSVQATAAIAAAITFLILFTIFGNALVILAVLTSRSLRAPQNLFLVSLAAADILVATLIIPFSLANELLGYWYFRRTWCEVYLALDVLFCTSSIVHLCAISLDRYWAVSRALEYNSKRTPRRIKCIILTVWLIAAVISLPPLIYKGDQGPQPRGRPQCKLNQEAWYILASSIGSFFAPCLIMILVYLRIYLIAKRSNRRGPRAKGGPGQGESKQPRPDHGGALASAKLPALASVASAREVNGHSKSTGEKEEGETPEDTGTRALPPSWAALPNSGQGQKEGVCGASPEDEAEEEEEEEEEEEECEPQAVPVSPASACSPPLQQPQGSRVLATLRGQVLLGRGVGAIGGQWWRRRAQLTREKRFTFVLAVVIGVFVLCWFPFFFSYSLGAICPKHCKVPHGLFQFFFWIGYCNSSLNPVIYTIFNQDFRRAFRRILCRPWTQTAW
As to conditions: Compound concentration 10.0 uM.

For test [5], the target named is Insulin receptor-related protein (Homo sapiens) (UniProt P14616). The test is described as follows: INSRR (IRR) Kinase screen. Conditions: Compound concentration 1.0 uM.
In test [6] the target is Non-receptor tyrosine-protein kinase TYK2 (Homo sapiens) (UniProt P29597). As to the kind of experiment: TYK2 Kinase screen. Conditions: Compound concentration 1.0 uM.
Non-receptor tyrosine-protein kinase TYK2 (Homo sapiens), sequence (P29597 whole entry): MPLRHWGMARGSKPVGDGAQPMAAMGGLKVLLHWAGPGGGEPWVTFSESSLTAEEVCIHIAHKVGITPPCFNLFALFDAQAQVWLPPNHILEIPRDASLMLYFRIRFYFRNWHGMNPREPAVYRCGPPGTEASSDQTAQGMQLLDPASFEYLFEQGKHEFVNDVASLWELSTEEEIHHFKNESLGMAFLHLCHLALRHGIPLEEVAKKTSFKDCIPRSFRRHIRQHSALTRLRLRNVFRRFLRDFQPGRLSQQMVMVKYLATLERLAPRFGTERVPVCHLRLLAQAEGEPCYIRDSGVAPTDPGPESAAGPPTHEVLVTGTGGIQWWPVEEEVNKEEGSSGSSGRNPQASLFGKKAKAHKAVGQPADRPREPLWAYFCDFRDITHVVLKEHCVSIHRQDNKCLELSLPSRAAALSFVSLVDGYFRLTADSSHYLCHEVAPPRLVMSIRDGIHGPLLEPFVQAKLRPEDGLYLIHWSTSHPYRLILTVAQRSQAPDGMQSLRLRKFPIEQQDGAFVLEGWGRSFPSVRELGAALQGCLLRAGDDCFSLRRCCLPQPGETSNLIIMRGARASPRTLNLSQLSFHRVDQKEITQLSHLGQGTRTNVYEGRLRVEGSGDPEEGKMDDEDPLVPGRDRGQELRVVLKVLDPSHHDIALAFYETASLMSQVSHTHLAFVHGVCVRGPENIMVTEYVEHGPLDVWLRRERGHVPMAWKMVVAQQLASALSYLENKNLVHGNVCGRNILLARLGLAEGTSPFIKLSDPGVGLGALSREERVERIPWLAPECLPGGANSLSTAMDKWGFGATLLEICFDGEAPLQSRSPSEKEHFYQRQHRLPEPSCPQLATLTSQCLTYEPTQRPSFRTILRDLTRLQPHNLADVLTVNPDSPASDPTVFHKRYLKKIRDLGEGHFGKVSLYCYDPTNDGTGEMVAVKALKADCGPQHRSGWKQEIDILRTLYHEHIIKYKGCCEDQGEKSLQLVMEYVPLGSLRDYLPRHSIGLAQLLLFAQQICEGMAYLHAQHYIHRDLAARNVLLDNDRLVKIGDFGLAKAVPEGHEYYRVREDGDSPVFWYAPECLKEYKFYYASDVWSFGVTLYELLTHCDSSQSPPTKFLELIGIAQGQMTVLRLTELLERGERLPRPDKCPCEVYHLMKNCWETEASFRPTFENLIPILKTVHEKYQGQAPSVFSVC
The target of test [7] is Phosphatidylinositol 4-kinase alpha (Homo sapiens) (UniProt P42356). As to the kind of experiment: PI4KA (PI4K alpha) Kinase screen. As to conditions: Compound concentration 1.0 uM.
For test [8], the target named is Adrenomedullin receptor AM1; CALCRL/RAMP2 (Homo sapiens) (UniProt O60895+Q16602). As to the kind of experiment: Adrenomedullin AM1 Eurofins-Panlabs radioligand binding assay. The format is protein-complex assay. Conditions: Compound concentration 10.0 uM.
The species entered for test [9] is Homo sapiens. As to the kind of experiment: Chemokine CCR1 Eurofins-Panlabs radioligand binding assay. Also noted: ligand concentration 0.1 nM. Conditions: Compound concentration 10.0 uM.
In test [10] the target is Protein-tyrosine kinase 6 (Homo sapiens) (UniProt Q13882). The test is described as follows: PTK6 (Brk) Kinase screen. Conditions: Compound concentration 1.0 uM.
Protein-tyrosine kinase 6 (Homo sapiens), sequence (Q13882 whole entry, looked up): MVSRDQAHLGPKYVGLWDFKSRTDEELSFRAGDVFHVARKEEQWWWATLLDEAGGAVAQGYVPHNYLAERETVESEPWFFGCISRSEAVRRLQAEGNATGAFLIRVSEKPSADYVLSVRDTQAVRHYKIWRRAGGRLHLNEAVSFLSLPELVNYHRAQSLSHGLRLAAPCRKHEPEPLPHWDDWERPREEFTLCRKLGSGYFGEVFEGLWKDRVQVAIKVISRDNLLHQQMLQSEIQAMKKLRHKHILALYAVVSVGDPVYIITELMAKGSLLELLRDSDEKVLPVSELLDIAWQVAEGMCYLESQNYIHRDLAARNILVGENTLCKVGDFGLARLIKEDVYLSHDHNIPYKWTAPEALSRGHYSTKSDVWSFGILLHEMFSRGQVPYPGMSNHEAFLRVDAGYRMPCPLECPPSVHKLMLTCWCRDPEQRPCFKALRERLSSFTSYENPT
Test [11] concerns the target Tyrosine-protein kinase JAK2 (Homo sapiens) (UniProt O60674). The test is described as follows: JAK2 Kinase screen. As to conditions: Compound concentration 1.0 uM.
The target in test [12] is T3, Sodium-dependent noradrenaline transporter (Homo sapiens, UniProt P23975).
T3 sequence (P23975 whole entry): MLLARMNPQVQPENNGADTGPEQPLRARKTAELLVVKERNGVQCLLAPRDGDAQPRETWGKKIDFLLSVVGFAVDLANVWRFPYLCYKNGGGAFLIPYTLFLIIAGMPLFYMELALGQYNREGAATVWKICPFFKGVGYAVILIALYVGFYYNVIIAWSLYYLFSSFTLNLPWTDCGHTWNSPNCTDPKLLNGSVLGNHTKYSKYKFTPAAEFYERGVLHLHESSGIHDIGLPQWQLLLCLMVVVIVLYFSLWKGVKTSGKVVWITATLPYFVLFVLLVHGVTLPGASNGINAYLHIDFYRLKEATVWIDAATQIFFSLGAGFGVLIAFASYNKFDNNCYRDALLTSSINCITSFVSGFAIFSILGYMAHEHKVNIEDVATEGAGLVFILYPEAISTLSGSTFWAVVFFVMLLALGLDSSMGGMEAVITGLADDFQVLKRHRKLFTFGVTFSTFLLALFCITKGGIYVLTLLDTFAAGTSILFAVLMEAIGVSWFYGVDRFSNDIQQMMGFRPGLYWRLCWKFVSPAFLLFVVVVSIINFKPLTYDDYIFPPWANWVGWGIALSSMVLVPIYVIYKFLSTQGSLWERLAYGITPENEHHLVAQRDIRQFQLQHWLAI
The species named for test [13] is Homo sapiens. The test is described as follows: Somatostatin sst2 Eurofins-Panlabs radioligand binding assay. Also noted: ligand concentration 0.03 nM. Conditions: Compound concentration 10.0 uM.
In test [14] the target is 5-hydroxytryptamine receptor 1B (Homo sapiens) (UniProt P28222). As to the kind of experiment: Inhibition of Serotonin (5-Hydroxytryptamine) 5-HT1B at 10 µM in the Eurofins-Panlabs radioligand binding assay (Eurofins_assay_271200). As to conditions: Compound concentration 10.0 uM.
For test [15], the target named is Vasopressin V1b receptor (Homo sapiens) (UniProt P47901). As to the kind of experiment: Inhibition of Vasopressin V1B at 10 µM in the Eurofins-Panlabs radioligand binding assay (Eurofins_assay_287560). Also noted: ligand concentration 1 nM. Conditions: Compound concentration 10.0 uM.
For test [16], the target named is Mitogen-activated protein kinase 14 (Homo sapiens) (UniProt Q16539). As to the kind of experiment: MAPK14 (p38 alpha) Direct Kinase screen. Conditions: Compound concentration 1.0 uM.
The target in test [17] is T4, Homeodomain-interacting protein kinase 4 (Homo sapiens) (UniProt Q8NE63).
T4 sequence (whole entry): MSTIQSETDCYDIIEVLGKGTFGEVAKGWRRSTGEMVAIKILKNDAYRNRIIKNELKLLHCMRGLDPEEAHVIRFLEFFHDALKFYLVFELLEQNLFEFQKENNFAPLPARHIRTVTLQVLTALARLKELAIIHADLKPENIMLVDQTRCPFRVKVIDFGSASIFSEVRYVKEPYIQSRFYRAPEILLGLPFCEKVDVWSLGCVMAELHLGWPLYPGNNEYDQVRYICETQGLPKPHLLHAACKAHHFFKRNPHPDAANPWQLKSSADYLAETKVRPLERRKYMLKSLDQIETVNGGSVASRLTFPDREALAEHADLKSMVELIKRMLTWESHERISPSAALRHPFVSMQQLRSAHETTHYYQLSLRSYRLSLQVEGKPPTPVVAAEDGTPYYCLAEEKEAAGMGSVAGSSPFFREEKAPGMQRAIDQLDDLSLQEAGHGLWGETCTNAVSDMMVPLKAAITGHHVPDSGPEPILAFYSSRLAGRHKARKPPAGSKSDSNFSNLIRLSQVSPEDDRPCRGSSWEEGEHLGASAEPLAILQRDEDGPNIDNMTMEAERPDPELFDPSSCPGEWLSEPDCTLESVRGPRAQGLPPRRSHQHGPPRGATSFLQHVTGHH
As to the kind of experiment: HIPK4 Kinase screen. As to conditions: Compound concentration 1.0 uM.

Test [18] addresses T3, Sodium-dependent noradrenaline transporter. The test is described as follows: Inhibition of Transporter, Norepinephrine (NET) at compound concentration of 10.0 uM in the Eurofins-Panlabs radioligand binding assay (Eurofins_assay_204410). Also noted: ligand concentration 0.2 nM, non-specific ligand with concentration 10 uM Desipramine, incubation time 3 h, incubation temperature 4 C.

Test [19] concerns the target Protein-tyrosine kinase 2-beta (Homo sapiens) (UniProt Q14289). The test is described as follows: PTK2B (FAK2) Kinase screen. As to conditions: Compound concentration 1.0 uM.
Test [20] has as its target Tyrosine-protein kinase Fes/Fps (Homo sapiens) (UniProt P07332). As to the kind of experiment: FES (FPS) Kinase screen. Conditions: Compound concentration 1.0 uM.
Test [21] has as its target Mast/stem cell growth factor receptor Kit (Homo sapiens) (UniProt P10721). The test is described as follows: KIT Kinase screen. Conditions: Compound concentration 1.0 uM.
The target in test [22] is Testis-specific serine/threonine-protein kinase 1 (TSSK1B) (Homo sapiens) (UniProt Q9BXA7). As to the kind of experiment: STK22D (TSSK1) Kinase screen. As to conditions: Compound concentration 1.0 uM.
Testis-specific serine/threonine-protein kinase 1 (TSSK1B) (Homo sapiens), sequence (Q9BXA7 whole entry, looked up): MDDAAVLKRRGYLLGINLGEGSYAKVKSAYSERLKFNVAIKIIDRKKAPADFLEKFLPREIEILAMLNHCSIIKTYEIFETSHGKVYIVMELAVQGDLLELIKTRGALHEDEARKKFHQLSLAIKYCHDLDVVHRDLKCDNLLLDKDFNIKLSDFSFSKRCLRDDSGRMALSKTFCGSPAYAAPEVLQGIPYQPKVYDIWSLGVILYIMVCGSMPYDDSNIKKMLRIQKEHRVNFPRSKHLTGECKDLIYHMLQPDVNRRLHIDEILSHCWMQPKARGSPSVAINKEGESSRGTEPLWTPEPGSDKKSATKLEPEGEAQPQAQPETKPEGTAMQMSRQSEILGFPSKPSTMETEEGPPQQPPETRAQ

Tyrosine-protein kinase JAK2 (Homo sapiens), sequence (O60674 whole entry): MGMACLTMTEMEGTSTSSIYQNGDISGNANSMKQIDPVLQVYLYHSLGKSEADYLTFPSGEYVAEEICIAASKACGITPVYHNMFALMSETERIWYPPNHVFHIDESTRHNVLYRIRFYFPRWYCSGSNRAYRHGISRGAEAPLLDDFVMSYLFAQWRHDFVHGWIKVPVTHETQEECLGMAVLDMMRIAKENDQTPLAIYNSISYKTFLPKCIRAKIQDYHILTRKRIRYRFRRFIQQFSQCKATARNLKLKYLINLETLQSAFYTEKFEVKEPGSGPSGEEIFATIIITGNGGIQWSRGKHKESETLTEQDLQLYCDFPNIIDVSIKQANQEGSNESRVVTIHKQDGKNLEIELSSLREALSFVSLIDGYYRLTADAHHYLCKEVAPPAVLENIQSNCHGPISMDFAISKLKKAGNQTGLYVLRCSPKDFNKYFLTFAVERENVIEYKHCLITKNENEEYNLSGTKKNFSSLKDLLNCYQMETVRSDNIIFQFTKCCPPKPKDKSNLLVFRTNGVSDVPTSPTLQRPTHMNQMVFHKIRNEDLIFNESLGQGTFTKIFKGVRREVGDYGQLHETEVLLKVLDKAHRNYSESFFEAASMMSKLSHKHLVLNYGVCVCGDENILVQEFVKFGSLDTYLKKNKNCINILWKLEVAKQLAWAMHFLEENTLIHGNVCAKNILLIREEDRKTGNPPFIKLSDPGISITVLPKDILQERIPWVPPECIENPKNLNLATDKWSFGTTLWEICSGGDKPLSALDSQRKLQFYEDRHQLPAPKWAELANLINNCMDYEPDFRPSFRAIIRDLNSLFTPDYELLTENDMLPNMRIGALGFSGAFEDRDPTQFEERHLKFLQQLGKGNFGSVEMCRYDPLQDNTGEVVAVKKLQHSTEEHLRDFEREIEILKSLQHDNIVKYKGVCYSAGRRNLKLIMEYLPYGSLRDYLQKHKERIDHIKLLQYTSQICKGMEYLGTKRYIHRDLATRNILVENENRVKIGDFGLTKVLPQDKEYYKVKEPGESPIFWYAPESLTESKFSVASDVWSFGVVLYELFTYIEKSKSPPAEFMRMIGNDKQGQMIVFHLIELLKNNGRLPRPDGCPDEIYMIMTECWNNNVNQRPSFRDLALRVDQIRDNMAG
Tyrosine-protein kinase Fes/Fps (Homo sapiens), sequence (P07332 whole entry): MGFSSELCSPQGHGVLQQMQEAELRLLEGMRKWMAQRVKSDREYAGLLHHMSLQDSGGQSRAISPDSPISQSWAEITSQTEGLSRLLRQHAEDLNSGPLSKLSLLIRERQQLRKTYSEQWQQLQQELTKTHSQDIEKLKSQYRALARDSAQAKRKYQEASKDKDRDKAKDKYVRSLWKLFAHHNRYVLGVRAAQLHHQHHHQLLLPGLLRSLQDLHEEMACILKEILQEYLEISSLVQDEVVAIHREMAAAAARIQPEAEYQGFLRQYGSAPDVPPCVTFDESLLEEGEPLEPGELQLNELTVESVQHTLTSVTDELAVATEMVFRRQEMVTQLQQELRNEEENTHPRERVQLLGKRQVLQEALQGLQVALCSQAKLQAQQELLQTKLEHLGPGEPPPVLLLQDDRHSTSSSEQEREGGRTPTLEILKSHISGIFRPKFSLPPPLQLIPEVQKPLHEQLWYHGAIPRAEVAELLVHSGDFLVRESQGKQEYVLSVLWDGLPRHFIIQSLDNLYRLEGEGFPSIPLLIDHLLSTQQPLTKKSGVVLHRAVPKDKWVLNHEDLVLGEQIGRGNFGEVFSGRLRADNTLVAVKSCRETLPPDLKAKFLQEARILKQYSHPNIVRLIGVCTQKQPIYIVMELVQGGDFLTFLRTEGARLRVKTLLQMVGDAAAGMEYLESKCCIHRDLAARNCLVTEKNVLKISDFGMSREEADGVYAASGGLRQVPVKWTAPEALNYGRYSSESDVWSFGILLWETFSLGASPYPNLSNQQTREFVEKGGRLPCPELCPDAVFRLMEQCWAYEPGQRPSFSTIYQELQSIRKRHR

Regarding `C[C@@H]1CN(c2cc(-c3nn(C)c4ccc(OC5(C)CC5)cc34)ncn2)C[C@H](C)O1` [MLi-2-NC], the inhibition in test [1] was 5.75%.

Consider `C[C@@H]1CN(c2cc(-c3n[nH]c4ccc(OC5(C)CC5)cc34)ncn2)C[C@H](C)O1` [MLi-2], for which the inhibition in test [2] is -0.743%; in test [3] it was 23.9%; in test [4] it was 2%; in test [5], 21.1%; in test [6], 1.17%; in test [7], 5.35%. Moreover, the inhibition in [8] was -8%; in the test listed under Homo sapiens [9], -3%; in [10] it was 2.74%; in test [11], 5.78%; in test [12] (Compound concentration 0.01 uM), 6%; in [12] (Compound concentration 0.1 uM) it was 8%. Besides, the inhibition in test [12] (Compound concentration 1.0 uM) is 15%; in test [12] (Compound concentration 10.0 uM), 77%; in the test listed under Homo sapiens [13] it was 13%; in test [14], 0%; in test [15], 1%; in test [16], 8.11%. Moreover, the inhibition in test [17] is 6.2%; in [19], 2.48%; in test [20] it was 6.03%; in [21] it was 5.52%; in test [22] it was 15.8%. In test [18], the Ki was determined as 3.79 µM.

These data come from ChEMBL document CHEMBL4507291 (2021).
